Laboratory results published in US4205163A, “Tylosin derivatives” (Sanraku-Ocean Co., Ltd., priority 1977, dated 1980).
Values after ≈ are worked out from the molar mass of the structure shown. Where two headings read alike, the source gives them in different places.

What was measured:
[1] = test system: Staphylococcus aureus MS-9931; experiment: antimicrobial activity, broth dilution method; type: cell-based
Outline: (§1)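 Activity was measured by broth dilution against each strain. S. aureus MS-8710 is a clinical isolate resistant to tylosin, penicillin, tetracycline, erythromycin and leucomycin. The S. pyogenes strain is a clinical isolate resistant to tylosin, erythromycin, oleandomycin and leucomycin.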

[2] = test system: Staphylococcus aureus MS-9937; experiment: antimicrobial activity, broth dilution method; type: cell-based
Outline: as §1

[3] = test system: Streptococcus pyogenes MH-771; experiment: antimicrobial activity, broth dilution method; type: cell-based; conditions: Streptococcus pyogenes
Outline: as §1

[4] = test system: Mycoplasma gallisepticum KP-13; experiment: antibacterial activity against Mycoplasma; type: cell-based; conditions: Mycoplasmoides gallisepticum, KP13
Text: (§2) Furthermore the new antibiotics according to the present invention also show antimicrobial activity on Mycoplasma. In particular, it is noteworthy that they have much higher antimicrobial activity than tylosin on Mycoplasma that is resistant to macrolide antibiotics. Tab.
(§3) **Medium (Eiken PPLO Medium)

[5] = test system: Mycoplasma gallisepticum A-72; experiment: antibacterial activity against Mycoplasma; type: cell-based; conditions: Mycoplasmoides gallisepticum, A72; strain A-72, macrolide resistant; Eiken PPLO Medium
Text: as §2
(§4) *Macrolide resistant strain
as §3

[6] = test system: Mycoplasma gallisepticum E-11; experiment: antibacterial activity against Mycoplasma; type: cell-based; conditions: Mycoplasmoides gallisepticum, E11
Text: as §2, §4, §3

[7] = test system: Mycoplasma gallisepticum E-5; experiment: antibacterial activity against Mycoplasma; type: cell-based; conditions: Mycoplasmoides gallisepticum, E5
Text: as §2, §4, §3

[8] = toxicity in chickens, mixed with feed for a month; type: in vivo; conditions: mixed with feed at 0.3%
Text: 3-Acetyl-4"-D-(α-hydroxyphenylacetyl)tylosin, 4"-phenylthioacetyltylosin and 4"-benzenesulfonylacetyltylosin, selected as the representative compounds according to the present invention, were mixed with feed at a ratio of 0.3%, respectively and given to chickens for a month.

in vivo = conditions: mouse, po, 100 mg/kg
Method: The new antibiotics according to the present invention were each orally administered to mice at a dose of 100 mg/kg. Each blood level was then measured and compared with those of tylosin and 3-acetyltylosin.

[9] = test system: Bacillus cereus ATCC 9634; experiment: antimicrobial activity, broth dilution method; type: cell-based; conditions: Bacillus cereus
Outline: as §1

Sarcina lutea ATCC 9341 = experiment: antimicrobial activity, broth dilution method; type: cell-based; conditions: Micrococcus luteus, ATCC9341, Sarcina lutea ATCC 9341, read-out: minimum inhibitory concentration (MIC)
Outline: as §1

[10] = test system: Staphylococcus aureus FDA-209P; experiment: antimicrobial activity, broth dilution method; type: cell-based; conditions: Staphylococcus aureus, FDA209P, read-out: minimum inhibitory concentration (MIC)
Outline: (§5)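 Broth dilution MICs were measured against pathogenic bacteria, including clinically isolated drug-resistant strains. Staphylococcus aureus MS-8710 is resistant to tylosin, penicillin, tetracycline, erythromycin and leucomycin, and Streptococcus pyogenes to tylosin, erythromycin, oleandomycin and leucomycin.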

[11] = test system: Staphylococcus aureus MS-8710; experiment: antimicrobial activity, broth dilution method; type: cell-based; conditions: Staphylococcus aureus
Outline: as §1

[12] = test system: Staphylococcus aureus SMITH; experiment: antimicrobial activity, broth dilution method; type: cell-based; conditions: Staphylococcus aureus, read-out: minimum inhibitory concentration (MIC)
Outline: as §5

[13] = MS9931, Staphylococcus aureus MS-9931, drug-resistant clinical isolate, read-out: minimum inhibitory concentration (MIC)
[14] = MS9937, Staphylococcus aureus MS-9937, drug-resistant clinical isolate, read-out: minimum inhibitory concentration (MIC)
[15] = MH771, Streptococcus pyogenes MH-771, drug-resistant clinical isolate, read-out: minimum inhibitory concentration (MIC)
[16] = strain KP-13, Eiken PPLO Medium, read-out: MIC
[17] = strain E-11, macrolide resistant, Eiken PPLO Medium, read-out: MIC
[18] = strain E-5, macrolide resistant, Eiken PPLO Medium, read-out: MIC
[19] = ATCC9634, Bacillus cereus ATCC 9634, broth dilution, read-out: minimum inhibitory concentration (MIC)
[20] = Staphylococcus aureus FDA-209P, broth dilution
[21] = MS8710, Staphylococcus aureus MS-8710, drug-resistant clinical isolate, read-out: minimum inhibitory concentration (MIC)
[22] = Staphylococcus aureus SMITH, broth dilution

`CCC1OC(=O)CC(OC(C)=O)C(C)C(OC2OC(C)C(OC3CC(C)(O)C(OC(=O)C(O)c4ccccc4)C(C)O3)C(N(C)C)C2O)C(CC=O)CC(C)C(=O)C=CC(C)=CC1COC1OC(C)C(O)C(OC)C1OC` [Compound 17, 3-acetyl-4"-D-(α-hydroxyphenylacetyl)tylosin] showed an MIC [1, 13] of 12.5 µg/mL (≈ 11.4 µM), an MIC [2, 14] of 12.5 µg/mL (≈ 11.4 µM) and an MIC [3, 15] of 6.25 µg/mL (≈ 5.72 µM). The MIC [4, 16] was 0.157 µg/mL (≈ 0.144 µM), the MIC [5] was 0.313 µg/mL (≈ 0.287 µM) and the MIC [6, 17] was 0.625 µg/mL (≈ 0.572 µM). The MIC [7, 18] was 0.625 µg/mL (≈ 0.572 µM), the toxicity [8] was “No toxicity was observed” and the concentration at 1 h (in vivo) was 10000 ng/mL. For the same molecule, the concentration at 3 h (in vivo) was 2000 ng/mL.
`CCC1OC(=O)CC(O)C(C)C(OC2OC(C)C(OC3CC(C)(O)C(OC(=O)CSc4ccccc4)C(C)O3)C(N(C)C)C2O)C(CC=O)CC(C)C(=O)C=CC(C)=CC1COC1OC(C)C(O)C(OC)C1OC` (stereo not shown) [Compound 34, 4"-phenylthioacetyltylosin] gave an MIC [9, 19] of 0.39 µg/mL (≈ 0.366 µM), an MIC (Sarcina lutea ATCC 9341) of 0.19 µg/mL (≈ 0.178 µM) and an MIC [10, 20] of 0.39 µg/mL (≈ 0.366 µM). It also gave an MIC [11, 21] of 6.25 µg/mL (≈ 5.86 µM), an MIC [1, 13] of 12.5 µg/mL (≈ 11.7 µM) and an MIC [2, 14] of 12.5 µg/mL (≈ 11.7 µM). It also gave an MIC [12, 22] of 0.39 µg/mL (≈ 0.366 µM), an MIC [3, 15] of 6.25 µg/mL (≈ 5.86 µM) and an MIC [4, 16] of 0.019 µg/mL (≈ 0.0178 µM). The MIC [5] was 0.078 µg/mL (≈ 0.0731 µM), the MIC [6, 17] was 0.078 µg/mL (≈ 0.0731 µM) and the MIC [7, 18] was 0.078 µg/mL (≈ 0.0731 µM). The toxicity [8] was “No toxicity was observed”.
Work on `CCC1OC(=O)CC(O)C(C)C(OC2OC(C)C(OC3CC(C)(O)C(OC(=O)CS(=O)(=O)c4ccccc4)C(C)O3)C(N(C)C)C2O)C(CC=O)CC(C)C(=O)C=CC(C)=CC1COC1OC(C)C(O)C(OC)C1OC` (stereo not shown) [Compound 43, 4"-benzenesulfonylacetyltylosin] yielded an MIC [9, 19] of 0.78 µg/mL (≈ 0.71 µM), an MIC (Sarcina lutea ATCC 9341) of 0.39 µg/mL (≈ 0.355 µM) and an MIC [10, 20] of 0.78 µg/mL (≈ 0.71 µM). It also gave an MIC [11, 21] of 6.25 µg/mL (≈ 5.69 µM), an MIC [1, 13] of 6.25 µg/mL (≈ 5.69 µM) and an MIC [2, 14] of 6.25 µg/mL (≈ 5.69 µM). The MIC [12, 22] was 0.78 µg/mL (≈ 0.71 µM), the MIC [3, 15] was 3.13 µg/mL (≈ 2.85 µM) and the MIC [4, 16] was 0.019 µg/mL (≈ 0.0173 µM). It also gave an MIC [5] of 0.039 µg/mL (≈ 0.0355 µM), an MIC [6, 17] of 0.078 µg/mL (≈ 0.071 µM) and an MIC [7, 18] of 0.078 µg/mL (≈ 0.071 µM). The toxicity [8] was “No toxicity was observed”.
In the case of `CC[C@H]1OC(=O)C[C@@H](O)[C@H](C)[C@@H](O[C@@H]2O[C@H](C)[C@@H](O[C@H]3C[C@@](C)(O)[C@@H](O)[C@H](C)O3)[C@H](N(C)C)[C@H]2O)[C@@H](CC=O)C[C@@H](C)C(=O)/C=C/C(C)=C/[C@@H]1CO[C@@H]1O[C@H](C)[C@@H](O)[C@@H](OC)[C@H]1OC` [tylosin], the MIC ([9]; ATCC9634, read-out: minimum inhibitory concentration (MIC)) is reported as 0.78 µg/mL (≈ 0.851 µM), the MIC (Sarcina lutea ATCC 9341) is reported as 0.19 µg/mL (≈ 0.207 µM) and the MIC [10] is reported as 0.39 µg/mL (≈ 0.426 µM). The MIC ([11]; MS8710, read-out: minimum inhibitory concentration (MIC)) was > 200 µg/mL, the MIC ([1]; Staphylococcus aureus, MS9931, read-out: minimum inhibitory concentration (MIC)) was 200 µg/mL (≈ 218 µM) and the MIC ([2]; Staphylococcus aureus, MS9937, read-out: minimum inhibitory concentration (MIC)) was 100 µg/mL (≈ 109 µM). The MIC [12] was 0.39 µg/mL (≈ 0.426 µM), the MIC ([3]; MH771, read-out: minimum inhibitory concentration (MIC)) was > 200 µg/mL and the MIC [4] was 0.019 µg/mL (≈ 0.0207 µM). For the same molecule, the MIC [5] was 2.5 µg/mL (≈ 2.73 µM), the MIC [6] was 2.5 µg/mL (≈ 2.73 µM) and the MIC [7] was 2.5 µg/mL (≈ 2.73 µM). The Cmax (in vivo) was ≤ 1000 ng/mL.
